The source of these data is US20060094676A1, “Compositions and methods for treating cancer using compositions comprising an inhibitor of endothelin receptor activity” (priority 2004, published 2006).

One experiment has as its system caspase 3. As to the kind of experiment: Western blot for caspase 3 activation. Format: cell-based. As to conditions: BQ788-treated melanoma cells; data not shown. An excerpt: Down-regulation of BCL2-A1 results in caspase 9 activation but not caspase 3 or 8 cleavage (Duriez, et al., A1 functions at the mitochondria to delay endothelial apoptosis in response to tumor necrosis factor, J. Biol. Chem., 275:18099-18107 (2000); Pagliari, et al., Macrophages require constitutive NF-kappaB activation to maintain A1 expression and mitochondrial homeostasis, Mol. Cell Biol., 20:8855-8865 (2000)). […] Whether caspase 6 activation occurs via reduction in BCL-2A1 expression or by alternative pathways remains to be determined.
Background: Immunoblotting shows a protein as a band on a membrane.

Another experiment has as its system caspase 6. Kind of experiment: Mch2/Caspase-6 colorimetric protease assay on cell lysates. Type of experiment: cell-based, human. Conditions: SK-MEL-28; after 3 days of treatment with BQ788. As for the experimental part:
Equal amounts of RNA from cells that were treated with BQ788 for 3 days were subjected to real-time RT-PCR analysis for the detection of BCL-2A1 (A) and ADP ribosyltransferase 3 (B) transcripts. Total amounts are represented in A while relative (to control) values are shown in B. Differences in expression levels are shown as x fold decrease and are statistically significant (p<0.05) unless a column in marked as non significant (N.S.). Lysates of BQ788 treated cells and controls were subjected to an apoptosis ELISA detection test (C). SK-MEL-28 cells were cultured with pan caspase inhibitor (D) or with caspase 6 inhibitor (E) with or without BQ788 for 2.5 days. […] SK-MEL-28 cells were cultured for 3 days in the presence of BQ788 and assayed for caspase 6 activity (F). […]
Caspase 3 inhibitor I (inhibits caspases 3, 6, 7, 8 & 10), cell-permeable (Calbiochem) and Caspase 6 inhibitor II, Cell-Permeable (Calbiochem) were dissolved in DMSO. […] Cell viability was measured using MTS solution in parallel experiments at 5 different time points. Caspase 6 activity was measured using Mch2/Caspase-6 Colorimetric Protease Assay Kit according to the manufacturer's instructions. […] Caspase 6 activity was measured in 4 samples containing equal amounts of protein from each condition by spectrophotometric detection of a chromophore following its release from the labeled caspase 6 substrate VEID. […]

Turning to `CCCC[C@@H](NC(=O)[C@@H](Cc1cn(C(=O)OC)c2ccccc12)NC(=O)[C@H](CC(C)(C)C)NC(=O)N1[C@H](C)CCC[C@@H]1C)C(=O)O` [BQ788, N-cis-2,6-dimethylpiperidinocarbonyl-L-γ-methylleucyl-D-1-methoxycarbonyltrptophanyl-D-norleucine], the “caspase 3 activation” value with caspase 3 is listed as “did not reveal caspase 3 activation”. In addition, in the experiment on caspase 6, the “caspase 6 activation” value is “could be detected”.
